Test system: MC38-OVA cells
Test: CD8+ T cell cytotoxicity assay (OT-I CD8+ T cells co-cultured with MC38-OVA cells, luciferase)
Assay type: cell-based, mouse
Conditions: each drug 5.0 μM; in vitro luciferase assay
Description: MC38-OVA cells expressing luciferase were co-cultured with OT-I CD8+ T cells in the presence of each drug (5.0 μM) and the T cell-mediated cytotoxicity was measured by the luciferase assay. Difference (log 2): (log 2 [relative viability] >1; P<0.05). Relative viability=(tumor cell viability of treated group)/(tumor cell viability of control group). […] Statistical analysis was conducted using 1-way ANOVA.
T cells were then centrifuged and cultured in RPMI1640 medium containing of 2 ng/ml murine IL2, 10% FBS and 1% PS.To measure the cytotoxicity of CD8+ T cells, 50,000 enriched CD8+ T cells were mixed in 96-well plates with MC38-OVA cells at ratios of 5:1, 1:1 or 1:5. […] We assessed the killing efficiency by measuring the activity of luciferase (#E1910, Dual-Luciferase® Reporter Assay System, Promega) after 6 hours of co-culture of the T-cells together with the tumor cells.
The CD8+ T cells were freshly isolated from the spleen of OT-I mouse (C57BL/6-Tg (TcraTcrb) 1100Mjb/J).

Molecule: icariin
- ranking in screen of antigen-specific OT-I CD8+ T-cell killing of MC38-OVA tumor cells: top-ranked compounds that most potently affected the T-cell activity

Molecule: COc1ccc(-c2coc3cc(O)cc(O)c3c2=O)cc1 [biochanin A]
- ranking in screen of antigen-specific OT-I CD8+ T-cell killing of MC38-OVA tumor cells: top-ranked compounds that most potently affected the T-cell activity

Reference: patent publication US12691093B2 (THE TRUSTEES OF INDIANA UNIVERSITY, priority 2020, dated 2026)
